Data from BindingDB's records for doi:10.1111/cbdd.12443 (Northeastern University, 2015).
Structures can show the parent of a compound that is named as a salt.

Each compound was assayed against T1, Phosphodiesterase (Trypanosoma brucei, UniProt Q8WQX9) (assay: TbrPDEB1 Enzyme Assay). Details: pH 7.4.
T1 sequence (Q8WQX9 whole entry): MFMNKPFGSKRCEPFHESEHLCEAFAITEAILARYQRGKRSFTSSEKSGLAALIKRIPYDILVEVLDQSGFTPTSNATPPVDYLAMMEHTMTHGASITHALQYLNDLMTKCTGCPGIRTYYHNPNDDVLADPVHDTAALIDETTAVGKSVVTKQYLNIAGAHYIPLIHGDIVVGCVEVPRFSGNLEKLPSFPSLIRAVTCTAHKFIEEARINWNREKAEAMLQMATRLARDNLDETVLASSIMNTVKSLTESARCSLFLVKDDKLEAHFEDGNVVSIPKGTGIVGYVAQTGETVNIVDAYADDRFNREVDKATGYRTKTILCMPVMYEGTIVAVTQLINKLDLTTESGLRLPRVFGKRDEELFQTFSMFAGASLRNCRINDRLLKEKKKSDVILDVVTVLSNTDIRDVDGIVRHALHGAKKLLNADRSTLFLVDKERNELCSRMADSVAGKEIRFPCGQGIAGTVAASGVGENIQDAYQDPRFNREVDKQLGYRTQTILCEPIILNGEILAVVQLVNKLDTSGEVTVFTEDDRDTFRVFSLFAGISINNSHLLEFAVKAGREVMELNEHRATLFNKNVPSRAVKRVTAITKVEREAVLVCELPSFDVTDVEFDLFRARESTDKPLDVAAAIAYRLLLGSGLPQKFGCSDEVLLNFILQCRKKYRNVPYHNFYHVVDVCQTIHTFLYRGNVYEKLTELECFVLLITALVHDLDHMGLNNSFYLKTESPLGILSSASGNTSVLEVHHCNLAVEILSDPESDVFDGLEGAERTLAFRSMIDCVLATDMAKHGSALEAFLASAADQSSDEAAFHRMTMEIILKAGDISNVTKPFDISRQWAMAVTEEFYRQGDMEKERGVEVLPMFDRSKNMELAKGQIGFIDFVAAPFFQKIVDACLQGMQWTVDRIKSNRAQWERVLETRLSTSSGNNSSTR
Protocol: In short, recombinant TbrPDEB1 and TbrPDEB2 were assayed in 10 mM Tris pH 7.4, bovine serum albumin (0.2 mg/mL), 10 mM MgCl2, 25µM cAMP (Enzo Lifesciences) and an excess of 5 endonucleotidase (>1000U) at 37 °C. Excess amount of 5 endonucleotidase was determined by titration (Enzo Lifesciences). Reactions were terminated by the addition of BioMol green (Enzo Lifesciences) which was also used to detect changes in the level of phosphate. This was measured by absorbance at 620 nm using a Tecan Sunrise plate reader. […] Inhibitors were preincubated with the assay mixture for 5 min prior to the addition of substrate. Inhibition was determined by the change in the initial velocity relative to a vehicle only control for both compound screening and for the determination of IC50 values. Initial velocity was determined by linear regression and IC50 values were calculated

IC50 [µM]	Structure (SMILES)
23	COc1cccc(Nc2c(C(N)=O)cnc3c(C)cc(-c4cccc(N)c4)cc23)c1 [6-(3-Aminophenyl)-4-((3-methoxyphenyl)amino)-8-methylquinoline-3-carboxamide (17f)]
26	COC(=O)c1cccc(-c2cc(C)c3ncc(C(N)=O)c(Nc4cccnc4)c3c2)c1 [Methyl 3-(3-carbamoyl-8-methyl-4-(pyridin-3-ylamino)quinolin-6-yl)benzoate (22f)]
5.9	COc1cccc(Nc2c(C(N)=O)cnc3c(C)cc(-c4cccc(-c5ncco5)c4)cc23)c1 [4-((3-Methoxyphenyl)amino)-8-methyl-6-(3-(oxazol-2-yl)phenyl)quinoline-3-carboxamide (17p)]
9	COc1cccc(Nc2c(C(N)=O)cnc3c(C)cc(-c4cn[nH]c4)cc23)c1 [4-((3-Methoxyphenyl)amino)-8-methyl-6-(1H-pyrazol-4-yl)quinoline-3-carboxamide  (17j)]
6	COc1cccc(Nc2c(C(N)=O)cnc3c(C)cc(-c4cccc(-c5nnc(C)s5)c4)cc23)c1 [4-((3-Methoxyphenyl)amino)-8-methyl-6-(3-(5-methyl-1,3,4-thiadiazol-2-yl)phenyl) quinoline-3-carboxamide, formic acid salt (17o)]
6.7	COc1cccc(Nc2c(C(N)=O)cnc3c(C)cc(-c4cccc(-c5nnn[nH]5)c4)cc23)c1 [6-(3-(1H-Tetrazol-5-yl)phenyl)-4-((3-methoxyphenyl)amino)-8-methylquinoline-3-carboxamide (17m)]
5.9	COc1cccc(Nc2c(C(N)=O)cnc3c(C)cc(-c4ccc5[nH]ccc5c4)cc23)c1 [6-(1H-Indol-5-yl)-4-((3-methoxyphenyl)amino)-8-methylquinoline-3-carboxamide (17t)]

Further lines, the compound ahead of its results:

Structure (SMILES)	IC50 [µM]
COc1cccc(Nc2c(C(N)=O)cnc3c(C)cc(S(=O)(=O)c4cccc(C(=O)O)c4)cc23)c1 [3-(3-carbamoyl-4-(3-methoxyphenylamino)-8-methylquinolin-6-ylsulfonyl)benzoic acid (11)]	2.9
CCOc1cccc(Nc2c(C(N)=O)cnc3c(C)cc(-c4ccc5cnn(C)c5c4)cc23)c1 [4-((3-Ethoxyphenyl)amino)-8-methyl-6-(1-methyl-1H-indazol-6-yl)quinoline-3-carboxamide (24c)]	4.2
COc1cccc(Nc2c(C(N)=O)cnc3ccc(-c4ccc5cnn(C)c5c4)cc23)c1 [4-((3-Methoxyphenyl)amino)-6-(1-methyl-1H-indazol-6-yl)quinoline-3-carboxamide (19b)]	12
COc1cccc(Nc2c(C(N)=O)cnc3c(C)cc(S(=O)(=O)c4cccc(C(=O)N(C)C)c4)cc23)c1 [GSK-256066]	24
CCc1cc(-c2ccc3cnn(C)c3c2)cc2c(Nc3cccc(OC)c3)c(C(N)=O)cnc12 [8-Ethyl-4-((3-methoxyphenyl)amino)-6-(1-methyl-1H-indazol-6-yl)quinoline-3-carboxamide (19c)]	3.7
Cc1cc(-c2cccc(-c3ncco3)c2)cc2c(NC3CCCC3)c(C(N)=O)cnc12 [4-(Cyclopentylamino)-8-methyl-6-(3-(oxazol-2-yl)phenyl)quinoline-3-carboxamide (28)]	5.9
COc1cccc(Nc2c(C(N)=O)cnc3c(C)cc(-c4cccc(N5CCOCC5)c4)cc23)c1 [4-((3-Methoxyphenyl)amino)-8-methyl-6-(3-morpholinophenyl)quinoline-3-carboxamide (17s)]	12
COC(=O)c1cccc(-c2cc(C)c3ncc(C(N)=O)c(NCc4ccccc4)c3c2)c1 [Methyl 3-(4-(benzylamino)-3-carbamoyl-8-methylquinolin-6-yl)benzoate (22c)]	28
CNC(=O)c1cccc(S(=O)(=O)c2cc(C)c3ncc(C(N)=O)c(Nc4cccc(OC)c4)c3c2)c1 [4-(3-methoxyphenylamino)-8-methyl-6-(3-(methylcarbamoyl)phenylsulfonyl)quinoline-3-carboxamide (12b)]	31
COc1ccc(Nc2c(C(N)=O)cnc3c(C)cc(-c4ccc5cnn(C)c5c4)cc23)cc1C [4-(4-Methoxy-3-methylphenylamino)-8-methyl-6-(1-methyl-1H-indazol-6-yl)quinoline-3-carboxamide, formic acid salt (24f)]	3.7
COC(=O)c1cccc(S(=O)(=O)c2cc(C)c3ncc(C(N)=O)c(Nc4cccc(OC)c4)c3c2)c1 [Methyl 3-(3-carbamoyl-4-(3-methoxyphenylamino)-8-methylquinolin-6-ylsulfonyl)benzoate (10a)]	3.5
COC(=O)c1cccc(Nc2cc(C)c3ncc(C(N)=O)c(Nc4cccc(OC)c4)c3c2)c1 [Methyl 3-(3-carbamoyl-4-(3-methoxyphenylamino)-8-methylquinolin-6-ylamino)benzoate (13)]	16
Cc1cccc(Nc2c(C(N)=O)cnc3c(C)cc(-c4ccc5cnn(C)c5c4)cc23)c1 [8-Methyl-6-(1-methyl-1H-indazol-6-yl)-4-(m-tolylamino)quinoline-3-carboxamide (24e)]	3.5
